Source: the supplement of paper PMC11562712

Assay: first-order primary biodegradation rate constant k (sorption-corrected, fDis-corrected) (d-1); higher = faster biodegradation
In short: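 River water and sieved sediment (50 g wet solid L^–1) from segments in Germany, Switzerland, Spain and Greece were spiked with 129 compounds at 1 μg L^–1 each and shaken in the dark at river water temperature (20.5 ± 3.5 °C) for 10 days, in three replicates. After filtration, water-phase subsamples were analysed by Orbitrap tandem mass spectrometry following ultra-high-performance liquid chromatography. First-order k was taken from log peak-area regression, corrected using azide-sterilised sorption controls and divided by the dissolved fraction, excluding invalid fits.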

[1] = river segment: Germany (DE) H_Contam, incubation temperature 24 °C
[2] = river segment: Germany (DE) T_Contam, incubation temperature 24 °C
[3] = river segment: Germany (DE) T_Pris, incubation temperature 24 °C
[4] = river segment: Greece (EL) A_Contam, incubation temperature 19 °C
[5] = river segment: Greece (EL) G_Contam, incubation temperature 19 °C
[6] = river segment: Greece (EL) G_Pris, incubation temperature 19 °C
[7] = river segment: Greece (EL) L_Contam, incubation temperature 19 °C
[8] = river segment: Spain (ES) B_Contam, incubation temperature 24 °C
[9] = river segment: Spain (ES) C_Contam, incubation temperature 24 °C
[10] = river segment: Spain (ES) F_Pris_Salt, incubation temperature 24 °C
[11] = river segment: Spain (ES) L_Contam, incubation temperature 24 °C
[12] = river segment: Switzerland (CH) C_Contam, incubation temperature 17 °C
[13] = river segment: Switzerland (CH) R_Contam, incubation temperature 17 °C
[14] = river segment: Switzerland (CH) U_Contam, incubation temperature 17 °C
[15] = river segment: Switzerland (CH) U_Pris, incubation temperature 17 °C

| first-order primary biodegradation rate constant k [1] | first-order primary biodegradation rate constant k [2] | first-order primary biodegradation rate constant k [3] | first-order primary biodegradation rate constant k [4] | first-order primary biodegradation rate constant k [5] | first-order primary biodegradation rate constant k [7] | first-order primary biodegradation rate constant k [9] | first-order primary biodegradation rate constant k [10] | first-order primary biodegradation rate constant k [12] | first-order primary biodegradation rate constant k [13] | first-order primary biodegradation rate constant k [15] | Structure (SMILES) | first-order primary biodegradation rate constant k [6] | first-order primary biodegradation rate constant k [8] | first-order primary biodegradation rate constant k [11] | first-order primary biodegradation rate constant k [14] |
| --- | --- | --- | --- | --- | --- | --- | --- | --- | --- | --- | --- | --- | --- | --- | --- |
| 0.0281 | 0.0415 | 0.0208 | – | – | – | – | – | – | – | – | CN(C)C(=N)NC(=N)N [Metformin] | – | – | – | – |
| 3.99 | – | 8.59 | – | – | 6.29 | – | 6.23 | – | 18 | – | CN(Cc1cnc2nc(N)nc(N)c2n1)c1ccc(C(=O)N[C@@H](CCC(=O)O)C(=O)O)cc1 [Methotrexate] | – | – | – | – |
| 0.119 | 0.0815 | 0.1 | 0.106 | 0.0602 | 0.211 | 0.151 | 4.7 | 0.175 | – | 0.0832 | COC(=O)c1ccc(O)cc1 [Methylparaben] | – | – | – | – |
| 0.297 | 0.215 | 0.165 | 0.291 | 0.171 | 0.42 | 0.218 | 0.241 | 0.177 | 0.263 | 0.606 | COCCc1ccc(OCC(O)CNC(C)C)cc1 (centres undefined) [Metoprolol] | 0.258 | 0.253 | 0.252 | 0.332 |

Continued, compound first:

| Structure (SMILES) | first-order primary biodegradation rate constant k [1] | first-order primary biodegradation rate constant k [2] | first-order primary biodegradation rate constant k [3] | first-order primary biodegradation rate constant k [4] | first-order primary biodegradation rate constant k [5] | first-order primary biodegradation rate constant k [7] | first-order primary biodegradation rate constant k [9] | first-order primary biodegradation rate constant k [10] | first-order primary biodegradation rate constant k [12] | first-order primary biodegradation rate constant k [13] | first-order primary biodegradation rate constant k [15] | first-order primary biodegradation rate constant k [6] | first-order primary biodegradation rate constant k [8] | first-order primary biodegradation rate constant k [11] | first-order primary biodegradation rate constant k [14] |
| --- | --- | --- | --- | --- | --- | --- | --- | --- | --- | --- | --- | --- | --- | --- | --- |
| Cc1cc(Cl)ccc1OC(C)C(=O)O (centres undefined) [Mecoprop] | 0.0948 | 0.267 | 0.0247 | 0.155 | 0.021 | 0.0787 | 0.159 | 0.0616 | 0.0712 | 0.201 | 0.417 | 0.0919 | 0.0613 | 0.0286 | 0.163 |
| Cc1cccc(Nc2ccccc2C(=O)O)c1C [Mefenamic acid] | 0.0696 | 0.497 | 0.23 | 0.235 | – | – | 0.0725 | 0.804 | 0.174 | – | 1.7 | – | – | – | 1.41 |
| CCc1cccc(C)c1N(C(=O)CCl)C(C)COC (centres undefined) [Metolachlor] | – | 0.0409 | – | – | – | – | 0.0203 | – | 0.0161 | – | 0.0285 | – | 0.0124 | 0.167 | 0.0398 |
